Data on two compounds can be found in ChEMBL document CHEMBL1141148, “Antidiabetic activity of passive nonsteroidal glucocorticoid receptor modulators” (J Med Chem, 2005).

Data set [1] can be described thus: Oral bioavailability in SD rats after 5 mg/kg oral dose. It counts as ADME, organism-based. The following applies: Sprague-Dawley, rat, in vivo.
Data set [2] can be described thus: Plasma protein binding of tritium labeled compound in human plasma was determined. It counts as ADME, cell-free. The note with it: read-out: Protein binding.
Data set [3] is described as follows: Cholesterol levels in ob/ob mice after 14 days of oral dose at 100 mpk b.i.d. It counts as ADME. The note with it: mouse, in vivo, 100 mg/kg, 336 h.
Data set [4] is described as follows: Glycogen levels in ob/ob mice after 14 days of oral dose at 100 mpk b.i.d. It counts as ADME. The note with it: mouse, in vivo, 100 mg/kg, 336 h.
A short description of data set [5]: Insulin levels in ob/ob mice after 14 days of oral dose at 30 mpk b.i.d. It counts as ADME. The note with it: mouse, in vivo, 30 mg/kg, 336 h.
The species named for data set [6] is Mus musculus. The data set is described as follows: Initial weight of the ob/ob mice before oral treatment at 100 mpk b.i.d. for 14 days. It counts as functional.
A short description of data set [7]: HbA1c levels in ob/ob mice after 30 days of oral dose at 30 mpk b.i.d. It counts as ADME. The note with it: mouse, in vivo, 30 mg/kg, 720 h.
The nature of data set [8]: Free fatty acid (FFA) levels in ob/ob mice after 14 days of oral dose at 100 mpk b.i.d. It counts as ADME. The note with it: mouse, in vivo, 100 mg/kg, 336 h.
Data set [9] in a line: Cholesterol levels in ob/ob mice after 30 days of oral dose at 30 mpk b.i.d. It counts as ADME. The note with it: mouse, in vivo, 30 mg/kg, 720 h.
The nature of data set [10]: Cholesterol levels in ob/ob mice after 14 days of oral dose at 30 mpk b.i.d. The following applies: mouse, in vivo, 30 mg/kg, 336 h. It counts as ADME.
Data set [11] in a line: Aspartate aminotransferase /alanine aminotransferase levels in ob/ob mice after 30 days of oral dose at 30 mpk b.i.d. The note with it: mouse, in vivo, 30 mg/kg, 720 h. It counts as ADME.
Data set [12] in a line: Liver TAT levels in ob/ob mice after 14 days of oral dose at 100 mpk b.i.d. It counts as ADME, tissue-based. The note with it: mouse, in vivo, 100 mg/kg, 336 h.
For data set [13], the species on record is Mus musculus. The data set is described as follows: Final weight of the ob/ob mice after 14 days of oral treatment at 30 mpk b.i.d. It counts as functional.
A short description of data set [14]: Compound level in liver in ob/ob mice after 13 days of […] mpk oral dose of compound. It counts as ADME, tissue-based. The note with it: mouse, 30 mg/kg, read-out: Level.
A short description of data set [15]: Cholesterol levels in ob/ob mice after 30 days of oral dose at 100 mpk b.i.d. It counts as ADME. The note with it: mouse, in vivo, 100 mg/kg, 720 h.
The nature of data set [16]: Free fatty acid (FFA) levels in ob/ob mice after 14 days of oral dose at 30 mpk b.i.d. It counts as ADME. The note with it: mouse, in vivo, 30 mg/kg, 336 h.
A short description of data set [17]: Insulin levels in ob/ob mice after 14 days of oral dose at 100 mpk b.i.d. It counts as ADME. The following applies: mouse, in vivo, 100 mg/kg, 336 h.
The species named for data set [18] is Mus musculus. The data set is described as follows: Initial weight of the ob/ob mice before oral treatment at 30 mpk b.i.d. for 14 days. It counts as functional.
Data set [19] can be described thus: Glucose levels in ob/ob mice after 14 days of oral dose at 30 mpk b.i.d. It counts as ADME. The following applies: mouse, in vivo, 30 mg/kg, 336 h.
The nature of data set [20]: Liver TAT levels in ob/ob mice after 14 days of oral dose at 30 mpk b.i.d. It counts as ADME, tissue-based. The note with it: mouse, in vivo, 30 mg/kg, 336 h.
Data set [21] can be described thus: Glycogen levels in ob/ob mice after 14 days of oral dose at 30 mpk b.i.d. It counts as ADME. The note with it: mouse, in vivo, 30 mg/kg, 336 h.
Data set [22] can be described thus: Aspartate aminotransferase /alanine aminotransferase levels in ob/ob mice after 30 days of oral dose at 100 mpk b.i.d. It counts as ADME. The note with it: mouse, in vivo, 100 mg/kg, 720 h.
Data set [23] in a line: Free fatty acid (FFA) levels in ob/ob mice after 30 days of oral dose at 30 mpk b.i.d. It counts as ADME. The following applies: mouse, in vivo, 30 mg/kg, 720 h.
A short description of data set [24]: Triglyceride levels in ob/ob mice after 30 days of oral dose at 100 mpk b.i.d. It counts as ADME. The note with it: mouse, in vivo, 100 mg/kg, 720 h.
Data set [25] is described as follows: HbA1c levels in ob/ob mice after 30 days of oral dose at 100 mpk b.i.d. The following applies: mouse, in vivo, 100 mg/kg, 720 h.
The nature of data set [26]: Plasma protein binding of tritium labeled compound in mouse plasma was determined. It counts as ADME, cell-free. The following applies: read-out: Protein binding (converted).
The nature of data set [27]: Triglyceride levels in ob/ob mice after 30 days of oral dose at 30 mpk b.i.d. It counts as ADME. The note with it: mouse, in vivo, 30 mg/kg, 720 h.
The species named for data set [28] is Mus musculus. The data set is described as follows: Final weight of the ob/ob mice after 14 days of oral treatment at 100 mpk b.i.d. It counts as functional.
A short description of data set [29]: Glucose levels in ob/ob mice after 14 days of oral dose at 100 mpk b.i.d. It counts as ADME. The note with it: mouse, in vivo, 100 mg/kg, 336 h.
Data set [30] in a line: Free fatty acid (FFA) levels in ob/ob mice after 30 days of oral dose at 100 mpk b.i.d. It counts as ADME. The following applies: mouse, in vivo, 100 mg/kg, 720 h.
For data set [31], the species on record is Mus musculus. The data set is described as follows: Initial weight of the ob/ob mice before oral treatment at 10 mpk b.i.d. for 13 days. It counts as functional.
For data set [32], the species on record is Mus musculus. The data set is described as follows: Initial weight of the ob/ob mice before oral treatment at 100 mpk b.i.d. for 13 days. It counts as functional.
The nature of data set [33]: Aspartate aminotransferase (AST) levels in ob/ob mice after 13 days of oral dose at 100 mpk b.i.d. It counts as ADME. The note with it: mouse, in vivo, 100 mg/kg, 312 h.
Data set [34] can be described thus: Free levels in ob/ob mice after 13 days of oral dose at 100 mpk b.i.d. It counts as ADME. The following applies: mouse, in vivo, 100 mg/kg, 312 h.
Data set [35] can be described thus: Insulin levels in ob/ob mice after 13 days of oral dose at 10 mpk b.i.d. It counts as ADME. The following applies: mouse, in vivo, 10 mg/kg, 312 h.
Data set [36] can be described thus: Clearance of the compound in rat after 5 mg/kg iv dose was determined. The following applies: in vivo.
The species entered for data set [37] is Mus musculus. The data set is described as follows: Final weight of the ob/ob mice after 13 days of oral treatment at 100 mpk b.i.d. It counts as functional.
Data set [38] is described as follows: Free fatty acid (FFA) levels in ob/ob mice after 13 days of oral dose at 10 mpk b.i.d. It counts as ADME. The note with it: mouse, in vivo, 10 mg/kg, 312 h.
A short description of data set [39]: Alanine aminotransferase (ALT) levels in ob/ob mice after 13 days of oral dose at 10 mpk b.i.d. It counts as ADME. The note with it: mouse, in vivo, 10 mg/kg, 312 h.
The species entered for data set [40] is Mus musculus. The data set is described as follows: Final weight of the ob/ob mice after 13 days of oral treatment at 10 mpk b.i.d. It counts as functional.
The nature of data set [41]: Glucose levels in ob/ob mice after 13 days of oral dose at 100 mpk b.i.d. It counts as ADME. The note with it: mouse, in vivo, 100 mg/kg, 312 h.
Data set [42] is described as follows: Glucose levels in ob/ob mice after 13 days of oral dose at 10 mpk b.i.d. It counts as ADME. The following applies: mouse, in vivo, 10 mg/kg, 312 h.
A short description of data set [43]: Compound level in plasma in ob/ob mice after 13 days of 100 mpk oral dose of compound. It counts as ADME. The note with it: mouse, 100 mg/kg, read-out: Level.
Data set [44] can be described thus: Aspartate aminotransferase (AST) levels in ob/ob mice after 13 days of oral dose at 10 mpk b.i.d. It counts as ADME. The note with it: mouse, in vivo, 10 mg/kg, 312 h.

Where “and” joins values, the source holds several entries; their conditions need not be identical. Equal entries are not always repeated.

One may read the bioavailability as the share of a dose that reaches the circulation, judged against a reference dose that is usually intravenous. High values mean much systemic uptake, low ones little systemic uptake. Compound `Cc1c(NS(C)(=O)=O)cccc1N(Cc1ccc(Oc2ccc(F)c(OCC(=O)O)c2)cc1)Cc1ccc(F)cc1F` returned a bioavailability in data set [1] of 40%. Further, the fraction unbound in data set [2] was 0.001; in data set [26], 0.003. The Level in [3] was determined as 1340 µg/mL; in [4] it was 44.2 mg/g; in data set [5] it was 0.025 µg/mL; in data set [7], 8.9%; in data set [8], 1.01 mequiv/L; in data set [9] it was 2660 µg/mL. The Level in data set [10] was 2250 µg/mL; in data set [11] it was 395 units/mL; in data set [12], 2.4 nmol ofpHB/min/mgof protein; in data set [15], 2390 µg/mL; in data set [16] it was 0.99 mequiv/L; in [17], 0.0328 µg/mL. In addition, the Level is 3140 µg/mL in data set [19]; 1.7 nmol ofpHB/min/mgof protein in [20]; 54.6 mg/g in data set [21]; 303 units/mL in data set [22]; 0.99 mequiv/L in [23]; 1630 µg/mL in [24]. For the same compound, the Level worked out at 7.7% in data set [25], 2140 µg/mL in data set [27], 2330 µg/mL in [29] and 1.27 mequiv/L in data set [30]. Further, the Weight worked out at 40 g in data set [6], 49.2 g in [13], 41.5 g in data set [18] and 46.9 g in [28]. Further, in data set [14], the concentration at 312 h came out at 20000 ng/g.
Regarding `Cc1c(NS(C)(=O)=O)cccc1N(Cc1ccccc1)Cc1ccc(Oc2ccc(OCC(=O)O)cc2)cc1`, the Weight in data set [31] is on record as 45.4 g; in [32], 46 g; in data set [37], 46.6 g; in data set [40], 49.3 g. Further, the Level in data set [33] was 330 units/mL; in data set [34], 1 mequiv/L; in data set [35], 0.02 µg/mL; in data set [38], 1.3 mequiv/L; in [39], 786 units/mL and 282 units/mL; in data set [41], 2900 µg/mL. The figures for the Level in data set [42] and in [44] were 3330 µg/mL and 420 units/mL, respectively. Besides, the Clearance in [36] worked out at 233 mL/min/kg. In addition, in [43], the concentration at 312 h is 1.6 µg/mL.
